# From ChEMBL document CHEMBL1681782, “A novel alkaloid, aristopyridinone A and anti-inflammatory phenanthrenes isolated from Aristolochia manshuriensis” (Bioorg Med Chem Lett, 2011)
# How the values were obtained:
# [1] = Antiinflammatory activity in human neutrophils assessed as inhibition of fMLP/CB-induced superoxide anion generation after 5 mins; format: functional, cell-based; details: Neutrophil
# Neutrophil [2] = assay: Ratio of Genistein IC50 to compound IC50 for inhibition of fMLP/CB-induced elastase release in human neutrophils; format: functional
# [3] = Antiinflammatory activity in human neutrophils assessed as inhibition of fMLP/CB-induced elastase release after 5 mins; format: functional, cell-based; details: Neutrophil
# Neutrophil [4] = assay: Ratio of Genistein IC50 to compound IC50 for inhibition of fMLP/CB-induced superoxide anion generation in human neutrophils; format: functional
SMILES,IC50 [1],Ratio IC50 (Neutrophil [2]),IC50 [3],Ratio IC50 (Neutrophil [4])
O=C1Nc2cc3ccc(O)cc3c3c4c(cc1c23)OCO4,0.12 µg/mL,35,0.2 µg/mL,4.5
O=c1c(-c2ccc(O)cc2)coc2cc(O)cc(O)c12 [GENISTEIN],0.54 µg/mL,,6.99 µg/mL,
COC(=O)c1cc2c(c3c1c([N+](=O)[O-])cc1c(OC)cccc13)OCO2,> 10 µg/mL,,> 10 µg/mL,
COc1cccc2c1ccc1c(C(N)=O)cc3c(c12)OCO3 [ARISTOLAMIDE],> 10 µg/mL,,> 10 µg/mL,
COc1cccc2c1cc([N+](=O)[O-])c1c(C(=O)O)cc3c(c12)OCO3 [ARISTOLOCHIC ACID],> 10 µg/mL,,> 10 µg/mL,
NC(=O)c1cc2c(c3c1ccc1ccccc13)OCO2 [ARISTOLAMIDE II],> 10 µg/mL,,4.11 µg/mL,
O=C(O)c1cc2c(c3c1c([N+](=O)[O-])cc1ccc(O)cc13)OCO2 [ARISTOLOCHIC ACID C],> 10 µg/mL,,> 10 µg/mL,
COC(=O)c1cc2c(c3c1ccc1c(OC)cc(OC)cc13)OCO2 [ARISTOLIC ACID METHYL ESTER],> 10 µg/mL,,> 10 µg/mL,
COc1cc(O)cc2c1cc([N+](=O)[O-])c1c(C(=O)O)cc3c(c12)OCO3 [ARISTOLOCHIC D],5.78 µg/mL,,8.49 µg/mL,
COC(=O)c1cc2c(c3c1ccc1c(OC)cccc13)OCO2 [METHYL ARISTOLATE],> 10 µg/mL,,> 10 µg/mL,
